Reference: patent publication US8609087B2, “Compounds and methods for identifying compounds which inhibit a new class of aspartyl proteases” (priority 1999, dated 2013)
Where “and” joins values, the source holds several entries; their conditions need not be identical. Equal entries are not always repeated. Entries after “also recorded” stand apart in the source; their conditions may differ. Square brackets hold non-standard residues; d marks the D form. Peptide text beside a SMILES is read from it. * marks the point of attachment. Sta = CC(C)C[C@H](N)[C@@H](O)CC(=O)O; Isovaleryl = CC(C)CC(=O)*; Nle = CCCC[C@H](N)C(=O)O

molecular target: TcpJ type 4 prepilin peptidase (TFPP) (Vibrio cholerae serotype O1, UniProt A5F385, P151Q/Q149P/S169T); type: biochemical

| Compound | % Cleavage | Effect on TcpJ peptidase activity (in words) |
| --- | --- | --- |
| O=c1oc(Cl)c(Cl)c2ccccc12 [3,4-DCI] | 89% and 54% |  |
| CC(C)C[C@H](NC(=O)[C@@H](O)[C@H](N)Cc1ccccc1)C(=O)O [Bestatin] | 81% |  |
| CCCC[C@@H](C=O)NC(=O)[C@H](CC(C)C)NC(=O)[C@H](CC(C)C)NC(C)=O [Calpain inhibitor I] (Ac-Leu-Leu-[Nle]-aldehyde) | 87% |  |
| CC(=O)N[C@@H](CC(C)C)C(=O)N[C@@H](CC(C)C)C(=O)N[C@H](C=O)CCCNC(=N)N [Leupeptin] | 85% |  |
| CCN1C(=O)C=CC1=O [NEM] | 30% | partial effects |
| O=S(=O)(F)Cc1ccccc1 [PMSF] | 98% and 68% | partial effects |
| Cl.NCCc1ccc(S(=O)(=O)F)cc1 [Pefabloc SC] | 62% and 50% | partial effects |
| CC(C)CC(=O)N[C@H](C(=O)N[C@H](C(=O)N[C@@H](CC(C)C)[C@@H](O)CC(=O)N[C@@H](C)C(=O)N[C@@H](CC(C)C)[C@@H](O)CC(=O)O)C(C)C)C(C)C [Pepstatin] (Isovaleryl-VV[Sta]A[Sta]-OH) | 95% and 92% and 74% | complete insensitivity; also recorded: completely resistant |
| CC(C)C[C@H](NP(=O)(O)O[C@@H]1O[C@@H](C)[C@H](O)[C@@H](O)[C@H]1O)C(=O)N[C@@H](Cc1c[nH]c2ccccc12)C(=O)O [Phosphoramidon] | 89% |  |
| Aprotinin | 100% |  |
